Tests used:
Format in all cases: in vivo
[1] = tested on: oat, wild (wild oat, Avena fatua); experiment: Test C greenhouse herbicide test, postemergence
Procedure, shortened: (§1)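 Greenhouse postemergence spray on plants 2–18 cm tall; response judged visually after 13–15 d relative to untreated controls using a 0 (none) to 100 (full control) scale.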

[2] = tested on: chickweed (common chickweed, Stellaria media); experiment: Test C greenhouse herbicide test, postemergence
Procedure, shortened: as §1

kochia (Kochia scoparia) = experiment: Test C greenhouse herbicide test, postemergence
Procedure, shortened: as §1

[3] = tested on: galium (catchweed bedstraw, Galium aparine); experiment: Test A greenhouse herbicide test, postemergence; details: 1000 g ai/ha, 0 to 100 scale, 0 is no effect, 100 is complete control
Procedure, shortened: (§2)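 Plants grown in loam soil/sand blend pots were treated postemergence at 2 to 10 cm height, one- to two-leaf stage, with formulated test chemicals. After approximately 10 d in a greenhouse, injury was rated visually against untreated controls on a 0 to 100 scale (0 no effect, 100 complete control).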

[4] = tested on: blackgrass (Alopecurus myosuroides); experiment: Test A greenhouse herbicide test, postemergence; details: 1000 g ai/ha, 0 to 100 scale, 0 is no effect, 100 is complete control
Procedure, shortened: as §2

[5] = tested on: velvetleaf (Abutilon theophrasti); experiment: Test C greenhouse herbicide test, pre- and postemergence
Procedure, shortened: (§3)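 Each species was treated both before emergence, in a loam–sand soil mix, and after emergence, as 1- to 4-leaf seedlings in peat-based potting medium. Plants stayed in the greenhouse 13 to 15 d, then were scored from 0 (no effect) to 100 (complete control) relative to controls.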

[6] = tested on: barnyardgrass (Echinochloa crus-galli); experiment: as above
Procedure, shortened: as §3

[7] = tested on: galium (catchweed bedstraw, Galium aparine); experiment: as above
Procedure, shortened: as §3

[8] = tested on: pigweed (Amaranthus retroflexus); experiment: as above
Procedure, shortened: as §3

[9] = tested on: ryegrass, Italian (Italian ryegrass, Lolium multiflorum); experiment: as above
Procedure, shortened: as §3

[10] = tested on: ragweed (common ragweed, Ambrosia elatior); experiment: as above
Procedure, shortened: as §3

[11] = tested on: nutsedge, yellow (yellow nutsedge, Cyperus esculentus); experiment: as above
Procedure, shortened: as §3

soybean (Glycine max) = experiment: as above
Procedure, shortened: as §3

[12] = tested on: blackgrass (Alopecurus myosuroides); experiment: as above
Procedure, shortened: as §3

[13] = Postemergence, 31 g ai/ha, 0 to 100 scale (0 no effect, 100 complete control)
[14] = Postemergence, 125 g ai/ha, scale 0 to 100, 0 is no effect, 100 is complete control
[15] = Postemergence, 250 g ai/ha, scale 0 to 100, 0 no effect, 100 complete control, 13 to 15 d
[16] = postemergence, 62 g ai/ha, scale 0 to 100, 0 no effect, 100 complete control
[17] = Preemergence, 62 g ai/ha, scale 0 to 100, 0 is no effect, 100 is complete control
[18] = Preemergence, 125 g ai/ha, scale 0 to 100, 0 is no effect, 100 is complete control
[19] = Preemergence, 250 g ai/ha, scale 0 to 100, 0 no effect, 100 complete control
[20] = Preemergence, 31 g ai/ha, scale 0 to 100, 0 is no effect, 100 is complete control

## CCc1ccc2ccccc2c1-c1c(O)c(C)nn(C)c1=O [Compound 32]
[1]; [13]
  Oat, Wild plant response rating: 70
[1]; [14]
  Plant response rating, Oat, Wild: 100
[1]; [15]
  Plant response rating, Oat, Wild: 100
[1]; [16]
  Oat, Wild plant response rating: 90
[2]; [13]
  Chickweed plant response rating: 90
[2]; [14]
  Plant response rating, Chickweed: 100
[2]; [15]
  Plant response rating, Chickweed: 100
[2]; [16]
  Chickweed plant response rating: 95
Kochia (Kochia scoparia); [13]
  Kochia plant response rating: 50
Kochia (Kochia scoparia); [14]
  Plant response rating, Kochia: 90
Kochia (Kochia scoparia); [15]
  Plant response rating, Kochia: 95
Kochia (Kochia scoparia); [16]
  Kochia plant response rating: 50
[3]
  Galium plant response rating: 100
[4]
  Blackgrass plant response rating: 90
[5]; [13]
  Velvetleaf plant response rating: 10
[5]; [14]
  Plant response rating, Velvetleaf: 85
[5]; [15]
  Plant response rating, Velvetleaf: 85
[5]; [17]
  Plant response rating, Velvetleaf: 85
[5]; [18]
  Plant response rating, Velvetleaf: 85
[5]; [19]
  Velvetleaf plant response rating: 90
[5]; [16]
  Velvetleaf plant response rating: 70
[6]; [13]
  Barnyardgrass plant response rating: 10
[6]; [14]
  Plant response rating, Barnyardgrass: 65
[6]; [15]
  Plant response rating, Barnyardgrass: 90
[6]; [20]
  Plant response rating, Barnyardgrass: 20
[6]; [17]
  Plant response rating, Barnyardgrass: 65
[6]; [18]
  Plant response rating, Barnyardgrass: 85
[6]; [19]
  Barnyardgrass plant response rating: 100
[6]; [16]
  Barnyardgrass plant response rating: 30
[7]; [13]
  Galium plant response rating: 90
[7]; [14]
  Plant response rating, Galium: 100
[7]; [15]
  Plant response rating, Galium: 100
[7]; [20]
  Plant response rating, Galium: 90
[7]; [17]
  Plant response rating, Galium: 95
[7]; [18]
  Plant response rating, Galium: 100
[7]; [19]
  Galium plant response rating: 98
[7]; [16]
  Galium plant response rating: 100
[8]; [13]
  Pigweed plant response rating: 75
[8]; [14]
  Plant response rating, Pigweed: 90
[8]; [15]
  Plant response rating, Pigweed: 95
[8]; [20]
  Plant response rating, Pigweed: 100
[8]; [17]
  Plant response rating, Pigweed: 100
[8]; [18]
  Plant response rating, Pigweed: 100
[8]; [19]
  Pigweed plant response rating: 100
[8]; [16]
  Pigweed plant response rating: 90
[9]; [13]
  Ryegrass, Italian plant response rating: 85
[9]; [14]
  Plant response rating, Ryegrass, Italian: 90
[9]; [15]
  Plant response rating, Ryegrass, Italian: 95
[9]; [20]
  Plant response rating, Ryegrass, Italian: 85
[9]; [17]
  Plant response rating, Ryegrass, Italian: 90
[9]; [18]
  Plant response rating, Ryegrass, Italian: 95
[9]; [19]
  Ryegrass, Italian plant response rating: 95
[9]; [16]
  Ryegrass, Italian plant response rating: 90
[10]; [13]
  Ragweed plant response rating: 85
[10]; [14]
  Plant response rating, Ragweed: 98
[10]; [15]
  Plant response rating, Ragweed: 98
[10]; [20]
  Plant response rating, Ragweed: 85
[10]; [17]
  Plant response rating, Ragweed: 90
[10]; [18]
  Plant response rating, Ragweed: 95
[10]; [19]
  Ragweed plant response rating: 98
[10]; [16]
  Ragweed plant response rating: 90
[11]; [13]
  Nutsedge, Yellow plant response rating: 55
[11]; [14]
  Plant response rating, Nutsedge, Yellow: 80
[11]; [15]
  Plant response rating, Nutsedge, Yellow: 85
[11]; [20]
  Plant response rating, Nutsedge, Yellow: 25
[11]; [17]
  Plant response rating, Nutsedge, Yellow: 45
[11]; [18]
  Plant response rating, Nutsedge, Yellow: 45
[11]; [19]
  Nutsedge, Yellow plant response rating: 60
[11]; [16]
  Nutsedge, Yellow plant response rating: 80
Soybean (Glycine max); [13]
  Soybean plant response rating: 15
Soybean (Glycine max); [14]
  Plant response rating, Soybean: 30
Soybean (Glycine max); [15]
  Plant response rating, Soybean: 35
Soybean (Glycine max); [17]
  Plant response rating, Soybean: 10
Soybean (Glycine max); [18]
  Plant response rating, Soybean: 40
Soybean (Glycine max); [19]
  Soybean plant response rating: 55
Soybean (Glycine max); [16]
  Soybean plant response rating: 25
[12]; [13]
  Blackgrass plant response rating: 30
[12]; [14]
  Plant response rating, Blackgrass: 80
[12]; [15]
  Plant response rating, Blackgrass: 80
[12]; [20]
  Plant response rating, Blackgrass: 70
[12]; [17]
  Plant response rating, Blackgrass: 90
[12]; [18]
  Plant response rating, Blackgrass: 90
[12]; [19]
  Blackgrass plant response rating: 90
[12]; [16]
  Blackgrass plant response rating: 60

From patent US10597388B2, “Pyridazinone herbicides” (FMC CORPORATION, priority 2014, dated 2020)
